The test system of this assay is E. coli R182. The format is cell-based, Escherichia coli. An excerpt: We compared the combination of P1 CRISPR phage (targeting ftsA) and ciprofloxacin to the use of P1 CRISPR phage alone for killing E. coli R182, a ciprofloxacin-resistant strain (FIG. 10A). Ciprofloxacin (Cip) dose was the highest therapeutically relevant concentration (4 micrograms per milliliter) to which the R182 strain is known to be resistant. E. coli were infected with CRISPR phage targeting the E. coli ftsA gene at a range of multiplicities of infection (MOI).
In addition, the combination of P1 CRISPR phage (targeting ftsA) and imipenem, a standard of care antibiotic in E. coli infections, was compared with P1 CRISPR phage alone for killing E. coli R182, a ciprofloxacin-resistant strain (FIG. 10B). […] The E. coli cells were infected with CRISPR phage at a range of MOI.
Finally, we compared the loss of viable E. coli R182 cells following exposure to imipinem, P1 CRISPR phage targeting ftsA, or a combination of both (FIG. 10C). For relevant conditions (n=3 for each condition), imipenem was held at a constant dose (LD50 for E. coli R182) and CRISPR phage was held to a MOI of 2.

Take `C[C@@H](O)[C@H]1C(=O)N2C(C(=O)O)=C(SCCN=CN)C[C@H]12` [Imipenem, imipenem]: the CFU reduction (constant dose (the LD50 for E. coli R182), FIG. 10B) is listed as 0.3 log.

Take `O=C(O)c1cn(C2CC2)c2cc(N3CCNCC3)c(F)cc2c1=O` [ciprofloxacin]: the bacterial viability result (ciprofloxacin alone, 4 micrograms per milliliter, FIG. 10A) was “did not reduce bacterial viability”.
